This note sets out measurements from patent publication US6670383B2, “Pyranocoumarin compounds as a novel pharmacophore with anti-TB activity” (priority 2001, dated 2003).

What all share (assay): microbe, parasite or virus in culture
What all share (assay type): cell-based

For assay [1], the system named is M. tuberculosis strain 1369.
For assay [2], the system named is M. tuberculosis strain 1371.
Assay [3] has as its system M. tuberculosis strain 1348.
Assay [4] concerns M. tuberculosis strain 1356.
Where [5] appears, read: Mycobacterium tuberculosis, 1369.
Setting [6] is: Mycobacterium tuberculosis, 1371.
[7] abbreviates: Mycobacterium tuberculosis, 1348.
The mark [8] stands for this setting: Mycobacterium tuberculosis, 1356.

Values after ≈ are worked out from the molar mass of the structure shown. Read-outs that look alike come from different tables or passages of the source.

As to (+)-Calanolide A [(+)-Calanolide A (1)], the MIC in assay [1] (strain 1369), in assay [2] (strain 1371), in assay [3] (strain 1348) and in assay [4] (strain 1356) was 8 µg/mL each time. Also, the fold resistance in assay [1] (strain 1369), in assay [2] (strain 1371), in assay [3] (strain 1348) and in assay [4] (strain 1356) was 1 fold throughout.
For the compound `CO[C@H]1/C=C/O[C@@]2(C)Oc3c(C)c(O)c4c(O)c(c(/C=N/N5CCN(C)CC5)c(O)c4c3C2=O)NC(=O)/C(C)=C\C=C\[C@H](C)[C@H](O)[C@@H](C)[C@@H](O)[C@@H](C)[C@H](OC(C)=O)[C@@H]1C` [Rifampin], the fold resistance is 64 (4,000) fold in assay [1], 0.016 (1) fold in assay [2], 0.031 (2) fold in assay [3] and 0.031 (2) fold in assay [4]. In addition, the MIC in assay [1] (setting [5]) stood at 64 µg/mL (≈ 77.8 µM); in assay [2] (setting [6]) it was 0.016 µg/mL (≈ 0.0194 µM); in assay [3] (setting [7]), 0.031 µg/mL (≈ 0.0377 µM); in assay [4] (setting [8]), 0.031 µg/mL (≈ 0.0377 µM).
As to `NNC(=O)c1ccncc1` [Isoniazid], the fold resistance was 0.031 (1) fold in assay [1], 0.031 (1) fold in assay [2], >128 (>4100) fold in assay [3] and 0.25 (8) fold in assay [4]. Moreover, the MIC in assay [1] (setting [5]) was 0.031 µg/mL (≈ 0.226 µM); in assay [2] (setting [6]) it was 0.031 µg/mL (≈ 0.226 µM); in assay [3] (setting [7]) it was above 128 µg/mL; in assay [4] (setting [8]) it was 0.25 µg/mL (≈ 1.82 µM).
Turning to `CC[C@@H](CO)NCCN[C@@H](CC)CO` [Ethambutol], the MIC in assay [1] (setting [5]) is 2 µg/mL (≈ 9.79 µM); in assay [2] (setting [6]) it was 2 µg/mL (≈ 9.79 µM); in assay [3] (setting [7]), 8 µg/mL (≈ 39.2 µM); in assay [4] (setting [8]), 64 µg/mL (≈ 313 µM). The fold resistance in assay [1] (strain 1369) is 1 fold; in assay [2] (strain 1371) it was 1 fold; in assay [3] (strain 1348) it was 4 fold; in assay [4] (strain 1356), 32 fold.
On to `[H]/N=C(/N)N[C@H]1[C@H](O)[C@@H](O)[C@H](O[C@@H]2O[C@@H](C)[C@](O)(C=O)[C@H]2O[C@@H]2O[C@@H](CO)[C@H](O)[C@@H](O)[C@@H]2NC)[C@@H](N/C(N)=N\[H])[C@@H]1O` [Streptomycin], for which the MIC is 0.25 µg/mL (≈ 0.43 µM) in assay [1] (setting [5]), above 128 µg/mL in assay [2] (setting [6]), 0.25 µg/mL (≈ 0.43 µM) in assay [3] (setting [7]) and 0.25 µg/mL (≈ 0.43 µM) in assay [4] (setting [8]). Further, the fold resistance is 1 fold in assay [1] (strain 1369), “(>512) fold” in assay [2] (strain 1371), 1 fold in assay [3] (strain 1348) and 1 fold in assay [4] (strain 1356).
